Test results: ChEMBL document CHEMBL1130935, “Synthesis of a paclitaxel isomer: C-2-acetoxy-C-4-benzoate paclitaxel” (Bioorg Med Chem Lett, 1998)
Active and inactive are the calls of the source. The calls are words filed in the database; no cut-off is given here.

Target: Tubulin alpha chain (Sus scrofa) (UniProt P02550)
Assay: Compound was tested for inhibitory activity against tubulin by tubulin polymerization assay; Inactive
Assay type: functional

Tubulin alpha chain (Sus scrofa), sequence (P02550 whole entry, looked up): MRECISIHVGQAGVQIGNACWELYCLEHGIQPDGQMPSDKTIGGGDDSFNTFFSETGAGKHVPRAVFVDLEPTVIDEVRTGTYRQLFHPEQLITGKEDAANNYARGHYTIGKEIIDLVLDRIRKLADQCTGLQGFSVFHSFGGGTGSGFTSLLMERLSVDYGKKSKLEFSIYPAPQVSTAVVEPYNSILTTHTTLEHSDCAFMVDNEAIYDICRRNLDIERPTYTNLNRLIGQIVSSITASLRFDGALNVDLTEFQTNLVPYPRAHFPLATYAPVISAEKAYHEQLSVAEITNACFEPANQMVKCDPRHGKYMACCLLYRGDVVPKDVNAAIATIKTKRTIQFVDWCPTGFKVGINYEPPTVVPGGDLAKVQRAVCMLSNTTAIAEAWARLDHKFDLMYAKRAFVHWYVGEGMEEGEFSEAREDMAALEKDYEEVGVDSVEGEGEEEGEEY

- Activity: inactive
SMILES: CC(=O)O[C@H]1C(=O)[C@]2(C)[C@@H](O)CC3OC[C@@]3(OC(=O)c3ccccc3)[C@H]2[C@H](OC(C)=O)[C@]2(O)C[C@H](OC(=O)[C@H](O)[C@@H](NC(=O)c3ccccc3)c3ccccc3)C(C)=C1C2(C)C (stereo partly specified)
